Like-named read-outs stand apart in the source and are kept apart here.
System: HBV viral load production from HepAD38 cells
Test: Viral production from HepAD38 cells: viral load in supernatant by qPCR of the HBV core sequence
Assay type: cell-based
Details: 5 days incubation, qPCR of supernatant HBV DNA vs DMSO control, read-out: viral load lowering EC50 (Activity)
Procedure: Assay Measuring Activity of Test Compounds on Viral Production from HepAD38 Cells
HepAD38 cells grown in a T-150 flask (Corning, cat #: 430825) with Growth Medium (DMEM/F12 […] (Hyclone, cat #: SH30023.02), 1× Pen/Strep (Invitrogen, cat #: 15140-122), 10% FBS (Tissue Culture Biologics, cat #: 101), […] G418 (Alfa Aesar, cat #: J62671), 1 μg/mL Tetracycline (Teknova, cat #: T3320)) were detached with 0.25% trypsin-EDTA (Invitrogen, cat #: 25200-056). Tetracycline-free treatment medium (15 mL DMEM/F12 (1:1) 1× Pen/step, with 2% FBS, Tet-system approved (Clontech, cat #: 631106) were then added to mix, transferred into a 50 ml conical tube (Falcon, cat #: 21008-918,) and spun at 1300 rpm for 5 min. Pelleted cells were then re-suspended/washed with 50 mL of 1×DPBS (Invitrogen, cat #: 14190-136) 2 times and 50 mL treatment medium twice. HepAD38 cells were then re-suspended with 10 mL of treatment medium, syringed and counted. Wells of 96-well clear bottom TC plate (Corning, cat #: 3904,) were seeded at 50,000 cells/well in 180 μL of treatment medium, and 20 μL of either 10% DMSO (Sigma, cat #: D4540) as controls or a 10× solution of test compounds in 10% DMSO in treatment media was added for a final compound concentration starting at 10 μM, and plates were incubated in 5% CO2 incubator at 37° C. for 5 days.
Subsequently viral load production was assayed by quantitative PCR (qPCR) of the HBV core sequence. PCR reaction mixture containing forward primers HBV-f 5′-CTGTGCCTTGGGTGGCTIT-3′ (IDT DNA), Reverse primers HBV-r 5′-[…]-3′ (IDT DNA), Fluorescent TaqMan™ Probes HBV-probe 5′-FAM/AGCTCCAAA/ZEN/[…]/3IABkFQ-3′ (IDT DNA), 10 μL/well of PerfeCTa® qPCR ToughMix® (Quanta Biosciences, Cat #: 95114-05K), and 6 μL/well of DEPC water (Alfa Aesar, cat #: J62087) was prepared. Four μL of supernatant was added to 16 μL of the reaction mixture in a qPCR plate (Applied Biosytems, Cat #: 4309849), sealed with a film (Applied Biosystems, Cat #: 4311971), centrifuged for a few seconds, and subsequently run on an Applied Biosystems VIIA7. The PCR mixture was incubated at 45° C. for 5 min, then 95° C. for 10 min, followed by 40 cycles of 10 seconds at 95° C. and 20 seconds at 60° C. Viral load was quantified against known HBV DNA standards by using ViiA™ 7 Software. Viral load in the supernatant from wells with treated cells were compared against viral load in supernatant from DMSO control wells (≥3 per plate). Cell viability assay was performed with CellTiter-Glo Luminescent Cell Viability Assay (Promega, cat #: G7573) with modification. Mixed appropriate amount of CellTiter-Glo (CTG) 1×DPBS in a 1:1 ratio, added 100 uL of the mixture to each well followed completely removal of all supernatant in each well without touching cell surface. Incubated the plate at room temperature for 10 min on an orbital shaker, and then read the plate with a plate reader (TECAN M1000 or Envision). EC50 or CC50 values were calculated through curve-fitting of the four-parameter nonlinear-logistic-regression model (GraphPad Prism or Dotmatics). CC50 values were all >10 μM.

[1] = Hepatitis B virus, HePAD38, 120 h

Structure (SMILES): C[C@@H](NC(=O)C1CC(C(=O)Nc2ccc(F)c(Cl)c2)N(C)S(=O)(=O)N1)c1ccc(C(F)(F)F)cc1 (single isomer, unassigned) [493-R-ISOMER-B]
- EC50 [1]: 100 to 10000 nM

Structure (SMILES): C[C@H](NC(=O)C1CC(C(=O)Nc2ccc(F)c(Cl)c2)N(C)S(=O)(=O)N1)c1ccc(C(F)(F)F)cc1 (single isomer, unassigned) [493-S-ISOMER-A]
- EC50 [1]: < 50 nM

Structure (SMILES): COc1ccc2nc(CNC(=O)C3CC(C(=O)Nc4ccc(F)c(Cl)c4)N(C)S(=O)(=O)N3)sc2c1 (single isomer, unassigned) [1011-ISOMER-A, N3-(3-Chloro-4-fluoro-phenyl)-N5-[(6-methoxy-1,3-benzothiazol-2-yl)methyl]-2-methyl-1,1-dioxo-1,2,6-thiadiazinane-3,5-dicarboxamide]
- EC50: 100 to 10000 nM

Structure (SMILES): COc1ccc2nc(CNC(=O)C3CC(C(=O)Nc4ccc(F)c(Cl)c4)N(C)S(=O)(=O)N3)sc2c1 (single isomer, unassigned) [1011-ISOMER-B, N3-(3-Chloro-4-fluoro-phenyl)-N5-[(6-methoxy-1,3-benzothiazol-2-yl)methyl]-2-methyl-1,1-dioxo-1,2,6-thiadiazinane-3,5-dicarboxamide]
- EC50 [1]: < 50 nM

Structure (SMILES): CN1C(C(=O)Nc2ccc(F)c(Cl)c2)CC(C(=O)NC2CCN(c3ccnc(Cl)c3)CC2)NS1(=O)=O (single isomer, unassigned) [1012-ISOMER-A, N3-(3-Chloro-4-fluoro-phenyl)-N5-[1-(2-chloro-4-pyridyl)-4-piperidyl]-2-methyl-1,1-dioxo-1,2,6-thiadiazinane-3,5-dicarboxamide]
- EC50 [1]: < 50 nM

Structure (SMILES): CN1C(C(=O)Nc2ccc(F)c(Cl)c2)CC(C(=O)NC2CCN(c3ccnc(Cl)c3)CC2)NS1(=O)=O (single isomer, unassigned) [1012-ISOMER-B, N3-(3-Chloro-4-fluoro-phenyl)-N5-[1-(2-chloro-4-pyridyl)-4-piperidyl]-2-methyl-1,1-dioxo-1,2,6-thiadiazinane-3,5-dicarboxamide]
- EC50: 50 to 100 nM

Structure (SMILES): CN1C(C(=O)Nc2ccc(F)c(Cl)c2)CC(C(=O)NC(c2ccccc2)c2ccccc2)NS1(=O)=O (single isomer, unassigned) [1014-ISOMER-A, N5-benzhydryl-N3-(3-Chloro-4-fluoro-phenyl)-2-methyl-1,1-dioxo-1,2,6-thiadiazinane-3,5-dicarboxamide]
- EC50 [1]: < 50 nM

Structure (SMILES): CN1C(C(=O)Nc2ccc(F)c(Cl)c2)CC(C(=O)NC(c2ccccc2)c2ccccc2)NS1(=O)=O (single isomer, unassigned) [1014-ISOMER-B, N5-benzhydryl-N3-(3-Chloro-4-fluoro-phenyl)-2-methyl-1,1-dioxo-1,2,6-thiadiazinane-3,5-dicarboxamide]
- EC50: 100 to 10000 nM

Structure (SMILES): Cc1nc(-c2ccccc2Cl)sc1CNC(=O)C1CC(C(=O)Nc2ccc(F)c(Cl)c2)N(C)S(=O)(=O)N1 (single isomer, unassigned) [1015-ISOMER-A, N3-(3-Chloro-4-fluoro-phenyl)-N5-[[2-(2-chlorophenyl)-4-methyl-thiazol-5-yl]methyl]-2-methyl-1,1-dioxo-1,2,6-thiadiazinane-3,5-dicarboxamide]
- EC50 [1]: < 50 nM

Structure (SMILES): Cc1nc(-c2ccccc2Cl)sc1CNC(=O)C1CC(C(=O)Nc2ccc(F)c(Cl)c2)N(C)S(=O)(=O)N1 (single isomer, unassigned) [1015-ISOMER-B, N3-(3-Chloro-4-fluoro-phenyl)-N5-[[2-(2-chlorophenyl)-4-methyl-thiazol-5-yl]methyl]-2-methyl-1,1-dioxo-1,2,6-thiadiazinane-3,5-dicarboxamide]
- EC50: 50 to 100 nM

Structure (SMILES): Cc1nc(-c2ccccc2F)sc1CN(C(=O)C1CC(C(N)=O)NS(=O)(=O)N1C)c1ccc(F)c(Cl)c1 (single isomer, unassigned) [1016-ISOMER-A, N3-(3-chloro-4-fluoro-phenyl)-N-[[2-(2-fluorophenyl)-4-methyl-thiazol-5-yl]methyl]-2-methyl-1,1-dioxo-1,2,6-thiadiazinane-3,5-dicarboxamide]
- EC50 [1]: < 50 nM

Structure (SMILES): Cc1nc(-c2ccccc2F)sc1CNC(=O)C1CC(C(=O)Nc2ccc(F)c(Cl)c2)N(C)S(=O)(=O)N1 (single isomer, unassigned) [1016-ISOMER-B, N3-(3-chloro-4-fluoro-phenyl)-N5-[[2-(2-fluorophenyl)-4-methyl-thiazol-5-yl]methyl]-2-methyl-1,1-dioxo-1,2,6-thiadiazinane-3,5-dicarboxamide]
- EC50 [1]: 50 to 100 nM

Structure (SMILES): Cc1ccccc1-c1nc(C)c(CNC(=O)C2CC(C(=O)Nc3ccc(F)c(Cl)c3)N(C)S(=O)(=O)N2)s1 (single isomer, unassigned) [1017-ISOMER-A, N3-(3-chloro-4-fluoro-phenyl)-2-methyl-N5-[[4-methyl-2-(o-tolyl)thiazol-5-yl]methyl]-1,1-dioxo-1,2,6-thiadiazinane-3,5-dicarboxamide]
- EC50 [1]: < 50 nM

Structure (SMILES): Cc1ccccc1-c1nc(C)c(CNC(=O)C2CC(C(=O)Nc3ccc(F)c(Cl)c3)N(C)S(=O)(=O)N2)s1 (single isomer, unassigned) [1017-ISOMER-B, N3-(3-chloro-4-fluoro-phenyl)-2-methyl-N5-[[4-methyl-2-(o-tolyl)thiazol-5-yl]methyl]-1,1-dioxo-1,2,6-thiadiazinane-3,5-dicarboxamide]
- EC50: 100 to 10000 nM

Structure (SMILES): CN1C(C(=O)Nc2ccc(F)c(Cl)c2)CC(C(=O)NC2CCN(c3ccnc(Br)c3)CC2)NS1(=O)=O (single isomer, unassigned) [1036-ISOMER-A, N5-[1-(2-bromo-4-pyridyl)-4-piperidyl]-N3-(3-chloro-4-fluoro-phenyl)-2-methyl-1,1-dioxo-1,2,6-thiadiazinane-3,5-dicarboxamide]
- EC50 [1]: < 50 nM

Structure (SMILES): CN1C(C(=O)Nc2ccc(F)c(Cl)c2)CC(C(=O)NC2CCN(c3ccnc(Br)c3)CC2)NS1(=O)=O (single isomer, unassigned) [1036-ISOMER-B, N5-[1-(2-bromo-4-pyridyl)-4-piperidyl]-N3-(3-chloro-4-fluoro-phenyl)-2-methyl-1,1-dioxo-1,2,6-thiadiazinane-3,5-dicarboxamide]
- EC50: 100 to 10000 nM

Structure (SMILES): CN1C(C(=O)Nc2ccc(F)c(Cl)c2)CC(C(=O)NC2CCN(c3ccnc(F)c3)CC2)NS1(=O)=O (single isomer, unassigned) [1040-ISOMER-A, N3-(3-chloro-4-fluoro-phenyl)-N5-[1-(2-fluoro-4-pyridyl)-4-piperidyl]-2-methyl-1,1-dioxo-1,2,6-thiadiazinane-3,5-dicarboxamide]
- EC50 [1]: < 50 nM

Structure (SMILES): CN1C(C(=O)Nc2ccc(F)c(Cl)c2)CC(C(=O)NC2CCN(c3ccnc(-c4ccccc4)c3)CC2)NS1(=O)=O (single isomer, unassigned) [1050-ISOMER-A, N3-(3-chloro-4-fluoro-phenyl)-2-methyl-1,1-dioxo-N5-[1-(2-phenyl-4-pyridyl)-4-piperidyl]-1,2,6-thiadiazinane-3,5-dicarboxamide]
- EC50 [1]: 100 to 10000 nM

Structure (SMILES): CN1C(C(=O)Nc2ccc(F)c(Cl)c2)CC(C(=O)NC2CCN(c3ccnc(-c4ccccc4)c3)CC2)NS1(=O)=O (single isomer, unassigned) [1050-ISOMER-B, N3-(3-chloro-4-fluoro-phenyl)-2-methyl-1,1-dioxo-N5-[1-(2-phenyl-4-pyridyl)-4-piperidyl]-1,2,6-thiadiazinane-3,5-dicarboxamide]
- EC50: < 50 nM

Structure (SMILES): CN1C(C(=O)Nc2ccc(F)c(Cl)c2)CC(C(=O)N[C@@H]2CCN(c3ccnc(Cl)c3)C2)NS1(=O)=O (single isomer, unassigned) [1055-R-ISOMER-A]
- EC50 [1]: 100 to 10000 nM

Structure (SMILES): CN1C(C(=O)Nc2ccc(F)c(Cl)c2)CC(C(=O)N[C@@H]2CCN(c3ccnc(Cl)c3)C2)NS1(=O)=O (single isomer, unassigned) [1055-R-ISOMER-B]
- EC50: < 50 nM

Structure (SMILES): CN1C(C(=O)Nc2ccc(F)c(Cl)c2)CC(C(=O)N[C@H]2CCN(c3ccnc(Cl)c3)C2)NS1(=O)=O (single isomer, unassigned) [1055-S-ISOMER-A]
- EC50 [1]: 100 to 10000 nM

— US20230075856A1, “CYCLIC SULFAMIDE COMPOUNDS FOR TREATMENT OF HBV” (Assembly Biosciences, Inc., priority 2018, published 2023)
